Measured values reported in US20050049200A1, “LHRH-antagonists in the treatment of fertility disorders” (priority 1996, published 2005).
“Also recorded” adds a separate entry of the source. Where a SMILES comes first, the peptide text is derived from it. [ ]: non-standard residue; d: D form. dPhe(4-Cl) = N[C@H](Cc1ccc(Cl)cc1)C(=O)O; d2Nal = N[C@H](Cc1ccc2ccccc2c1)C(=O)O; dCit = NC(=O)NCCC[C@@H](N)C(=O)O; d3Pal = N[C@H](Cc1cccnc1)C(=O)O

Tests used:
[1] = system: patients undergoing COS/ART; assay: Phase II clinical trial of Cetrorelix in controlled ovarian stimulation (COS/ART); assay type: in vivo
Experimental: The results of a phase II clinical trial are shown in Table I. A total of […] patients were treated. […] During multiple dosing, the mean days of Cetrorelix application is 6 days. 25 babies were born by the end of May 1996 (7 following multiple doses; 18 following single/dual doses). 238 patients were treated with Cetrorelix by subcutaneous injection of Cetrorelix […]-Lyophilisat. 134 patients were treated with multiple doses and 104 patients with single or dual doses. The multiple doses are 0.25 mg/day or higher. The single dose was 3 mg or higher. […]

[2] = system: patients undergoing COH for IVF/ICSI; assay: Cetrorelix combined with clomifen citrate and gonadotrophins for hormonal stimulation (COH) for IVF/ICSI; assay type: in vivo; conditions: for fertilization rate: ICSI
Experimental: Combination of the GnRH antagonist Cetrorelix, clomifen citrate(CC) and gonadotrophins for hormonal stimulation for IVF/ICSI. COH was started on day 2 after spontaneous menstrual bleeding using 100 mg CC per day for 5 or 7 days. The antagonist Cetrorelix (0.25 mg s.c.) was given starting on stimulation day 6 combined with either urinary hMG or recombinant FSH (3 ampoules/d) in a prospective randomized way. After two days of gonadotrophin injection, the dose was individualized. Human chorionic gonadotropin was given for ovulation induction, if at least 3 follicles were ≧17 mm in diameter. In total, 30 patients were included in the study. 15 were randomized in each group. Intra cytoplasmatic sperm injection (ICSI) was applied in each case.

[3] = system: pituitary / follicular growth; assay: Animal experiments and clinical studies with Cetrorelix (unstimulated follicular growth, pituitary responsiveness); assay type: in vivo
Description: These low dosage levels present new possibilities for manipulating the time of ovulation during a normal, not exogenous gonadotropin-stimulated cycle, without affecting the viability of the growing follicle. In case of inadequate follicular growth related to treatment with LHRH-antagonists, low dose and short term administration of gonadotrophin or other trophic compounds will compensate for these effects. Subsequently, by stopping the LHRH-antagonist treatment, it is possible to let the normal ovulation occur or to induce ovulation by exogenous manipulation, if necessary. Ovulation induction was induced by the administration of standard HCG or by administration of LHRH and/or LHRH agonistic analogs. These described treatment alternatives are a departure from existing protocols, since they are possible only if preceded by treatment for LH-surge-control with an LHRH-antagonist. In animal and clinical studies with Cetrorelix it was shown that the responsiveness of the pituitary to LHRH or agonistic analogs is preserved under these conditions of treatment. Without this treatment, the pituitary cannot respond after agonistic pretreatment for LH-surge control due to receptor down-regulation. In addition, the possible use of ovulation inducing agents other than HCG results in a-reduced incidence of ovarian hyperstimulation syndrome.

[4] = system: premature LH surges; conditions: short term treatment; cited from earlier work
[5] = all phase II patients, both regimens
[6] = multiple dosing, 3-7/14 days, phase II dose finding
[7] = single dose (1 day), phase II dose finding

CC(=O)N[C@H](Cc1ccc2ccccc2c1)C(=O)N[C@H](Cc1ccc(Cl)cc1)C(=O)N[C@H](Cc1cccnc1)C(=O)N[C@@H](CO)C(=O)N[C@@H](Cc1ccc(O)cc1)C(=O)N[C@H](CCCNC(N)=O)C(=O)N[C@@H](CC(C)C)C(=O)N[C@@H](CCCNC(=N)N)C(=O)N1CCC[C@H]1C(=O)N[C@H](C)C(N)=O [Cetrorelix] (Ac-[d2Nal][dPhe(4-Cl)][d3Pal]SY[dCit]LRP[dA]-NH2)
FSH secretion ([1]; FIG. 1): maintained at a natural level
individual estrogen development ([1]; FIG. 1): not affected
pregnancies obtained [1, 5]: 71
pregnancy rate [1, 5]: 30%
babies born by the end of May 1996 ([1]; both regimens together): 25
babies born by the end of May 1996 ([1]; following multiple doses): 7
babies born by the end of May 1996 ([1]; following single/dual doses): 18
pregnancy rate ([1]; multiple dose regimen): 28.4%
pregnancies ([1]; multiple dose regimen, of 134 patients): 38
premature LH surge ([1]; multiple doses of 0.25 mg or higher or single dose of 3 mg or higher, s.c.): No premature LH surge; also recorded: absolute prevention of any premature LH surge
min. effective dose (Dose/Day) [1, 6]: 0.25 min. effect, dose mg
no effect dose (Dose/Day) [1, 6]: 0.10 no effect. dose mg
min. effective dose [1, 7]: 3 min. effective dose mg
no effect dose [1, 7]: 2 no effect. Dose mg
duration of effect to prevent a premature LH surge ([1]; single dose regimen): up to 6.5 days
pregnancy rate ([1]; single/dual dosage regimen): 31.7%
pregnancies ([1]; single/dual dosage regimen, of 104 patients): 33
ovarian hyperstimulation syndrome (OHSS) ([2]; both groups, 30 patients): No case
oocytes retrieved per cycle ([2]; hMG group): 7.7±3.8
fertilization rate ([2]; hMG group): 42%
oocytes retrieved per cycle ([2]; recombinant FSH group): 6.4±2.6
fertilization rate ([2]; recombinant FSH group): 53%
effect on normal, unstimulated follicular growth ([3]; multiple or single injections, extremely low dosage levels): arrest of the normal, unstimulated follicular growth
responsiveness of the pituitary to LHRH or agonistic analogs ([3]; under treatment for LH-surge control): preserved
premature LH surges during stimulated cycles [4]: complete avoidance of premature LH surges
